Test results reported in PubChem BioAssay (NCI).
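Values below derive from 48-hour exposures of cells grown in 96-well plates, with endpoints linearly interpolated between the two concentrations bracketing the appropriate inhibition level. Definition used: TGI = concentration required for complete inhibition of growth.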

How the values were obtained:
Experiment in all cases: DTP human tumour cell line panel, 48 h
786-0 renal = tested on: 786-0 renal
A498 renal = tested on: A498 renal
A549 NSCLC = tested on: A549 NSCLC
ACHN renal = tested on: ACHN renal
CAKI-1 renal = tested on: CAKI-1 renal
CCRF-CEM leukemia = tested on: CCRF-CEM leukemia
COLO 205 colon = tested on: COLO 205 colon
DLD-1 colon = tested on: DLD-1 colon
DMS 114 small cell lung = tested on: DMS 114 small cell lung
DMS 273 small cell lung = tested on: DMS 273 small cell lung
EKVX NSCLC = tested on: EKVX NSCLC
HCC-2998 colon = tested on: HCC-2998 colon
HCT-116 colon = tested on: HCT-116 colon
HCT-15 colon = tested on: HCT-15 colon
HL-60(TB) leukemia = tested on: HL-60(TB) leukemia
HOP-18 NSCLC = tested on: HOP-18 NSCLC
HOP-62 NSCLC = tested on: HOP-62 NSCLC
HOP-92 NSCLC = tested on: HOP-92 NSCLC
IGROV1 ovarian = tested on: IGROV1 ovarian
K-562 leukemia = tested on: K-562 leukemia
KM12 colon = tested on: KM12 colon
KM20L2 colon = tested on: KM20L2 colon
LOX IMVI melanoma = tested on: LOX IMVI melanoma
LXFL 529 NSCLC = tested on: LXFL 529 NSCLC
M14 melanoma = tested on: M14 melanoma
M19-MEL melanoma = tested on: M19-MEL melanoma
MALME-3M melanoma = tested on: MALME-3M melanoma
MOLT-4 leukemia = tested on: MOLT-4 leukemia
NCI-H23 lung = tested on: NCI-H23 lung
NCI-H460 lung = tested on: NCI-H460 lung
OVCAR-3 ovarian = tested on: OVCAR-3 ovarian
OVCAR-4 ovarian = tested on: OVCAR-4 ovarian
OVCAR-5 ovarian = tested on: OVCAR-5 ovarian
OVCAR-8 ovarian = tested on: OVCAR-8 ovarian
RPMI-8226 leukemia = tested on: RPMI-8226 leukemia
RXF-631 renal = tested on: RXF-631 renal
SF-268 CNS = tested on: SF-268 CNS
SF-295 CNS = tested on: SF-295 CNS
SF-539 CNS = tested on: SF-539 CNS
SK-MEL-2 melanoma = tested on: SK-MEL-2 melanoma
SK-MEL-28 melanoma = tested on: SK-MEL-28 melanoma
SK-MEL-5 melanoma = tested on: SK-MEL-5 melanoma
SK-OV-3 ovarian = tested on: SK-OV-3 ovarian
SN12C renal = tested on: SN12C renal
SNB-19 CNS = tested on: SNB-19 CNS
SNB-78 CNS = tested on: SNB-78 CNS
SW-620 colon = tested on: SW-620 colon
TK-10 renal = tested on: TK-10 renal
U251 CNS = tested on: U251 CNS
UACC-257 melanoma = tested on: UACC-257 melanoma
UACC-62 melanoma = tested on: UACC-62 melanoma
XF 498 CNS = tested on: XF 498 CNS
HT29 colon = tested on: HT29 colon
NCI-H226 lung = tested on: NCI-H226 lung
NCI-H522 lung = tested on: NCI-H522 lung
RXF 393 renal = tested on: RXF 393 renal
SNB-75 CNS = tested on: SNB-75 CNS
SR leukemia = tested on: SR leukemia
UO-31 renal = tested on: UO-31 renal

Measured: TGI

Cc1ccc(C2=C(c3ccccc3)C(Br)(c3ccc(C)cc3)C(c3ccccc3)=C2c2ccc(C)cc2)cc1
> 100 µM: 786-0 renal | A498 renal | A549 NSCLC | ACHN renal | CAKI-1 renal | CCRF-CEM leukemia | COLO 205 colon | DLD-1 colon | DMS 114 small cell lung | DMS 273 small cell lung | EKVX NSCLC | HCC-2998 colon | HCT-116 colon | HCT-15 colon | HL-60(TB) leukemia | HOP-18 NSCLC | HOP-62 NSCLC | HOP-92 NSCLC | IGROV1 ovarian | K-562 leukemia | KM12 colon | KM20L2 colon | LOX IMVI melanoma | LXFL 529 NSCLC | M14 melanoma | M19-MEL melanoma | MALME-3M melanoma | MOLT-4 leukemia | NCI-H23 lung | NCI-H460 lung | OVCAR-3 ovarian | OVCAR-4 ovarian | OVCAR-5 ovarian | OVCAR-8 ovarian | RPMI-8226 leukemia | RXF-631 renal | SF-268 CNS | SF-295 CNS | SF-539 CNS | SK-MEL-2 melanoma | SK-MEL-28 melanoma | SK-MEL-5 melanoma | SK-OV-3 ovarian | SN12C renal | SNB-19 CNS | SNB-78 CNS | SW-620 colon | TK-10 renal | U251 CNS | UACC-257 melanoma | UACC-62 melanoma | XF 498 CNS

C=CCCN1CCc2c([nH]c3ccccc23)C1C(=O)O (stereo unspecified)
> 100 µM: A498 renal | A549 NSCLC | ACHN renal | CAKI-1 renal | CCRF-CEM leukemia | COLO 205 colon | DLD-1 colon | DMS 114 small cell lung | DMS 273 small cell lung | EKVX NSCLC | HCC-2998 colon | HCT-116 colon | HL-60(TB) leukemia | HOP-62 NSCLC | HOP-92 NSCLC | HT29 colon | IGROV1 ovarian | K-562 leukemia | KM12 colon | KM20L2 colon | LOX IMVI melanoma | LXFL 529 NSCLC | M14 melanoma | M19-MEL melanoma | MALME-3M melanoma | MOLT-4 leukemia | NCI-H226 lung | NCI-H23 lung | NCI-H460 lung | NCI-H522 lung | OVCAR-3 ovarian | OVCAR-4 ovarian | OVCAR-5 ovarian | RXF 393 renal | RXF-631 renal | SF-268 CNS | SF-295 CNS | SF-539 CNS | SK-MEL-2 melanoma | SK-MEL-28 melanoma | SK-MEL-5 melanoma | SK-OV-3 ovarian | SN12C renal | SNB-19 CNS | SNB-75 CNS | SNB-78 CNS | SR leukemia | SW-620 colon | TK-10 renal | U251 CNS | UACC-257 melanoma | UACC-62 melanoma | UO-31 renal | XF 498 CNS
